According to publication PMC11242993, “Evaluation of the Therapeutic Potential of Sulfonyl Urea Derivatives as Soluble Epoxide Hydrolase (sEH) Inhibitors” (Molecules, 2024):

What was measured:
[1] = test system: C57BL/6J male mice; experiment: Hot plate model; type: in vivo; details: 10 mg/kg i.p.
Procedure: Thermal nociception in the hot plate test was assessed with a commercially available apparatus (Hotplate Analgesia Meter, Columbus Instruments) consisting of a metal plate to a constant temperature of 55.0 ± 0.1 °C. Mice were put into the hot plate testing instrument to adapt for at least 15 min. The device was connected to a manually operated timer that recorded the amount of time the mouse spent on the heated surface before showing signs of nociception (e.g., licked its paws or jumped), the cut-off time was 60 s. The baseline (basic pain threshold, the response was more than 25 s, and the jumping mice were excluded.) was calculated as the mean of three readings recorded before testing at intervals of 15 min. The time course of latency was then determined at 15, 30, 45, 60, 90, and 120 min after compound treatment. Data were analyzed as time-course curves of the percentage of maximum effect MPE% = (post drug latency − baseline latency) × 100/(cut-off time − baseline latency). C57BL/6J male mice obtained from The Jackson Laboratory (Bar Harbor, ME, USA) weighing 28 g were used for the hot plate test. Animal procedures were conducted following the rules and regulations of the Institutional Animal Care and Use Committee of the National Institute on Alcohol Abuse and Alcoholism (NIAAA) under the protocols of LPS-GK1.

[2] = test system: mice; experiment: LPS-induced acute lung injury (ALI) model; type: in vivo; details: 10 mg/kg i.p.
Procedure: LPS-induced acute lung injury induced by a single oropharyngeal instillation of lipopolysaccharide (LPS) (50 µg/mouse) in 16-week-old mice as described previously. Briefly, LPS (L4391, MilliporeSigma, Burlington, MA, USA) was dissolved in sterile saline and administered at 50 µg/mouse in 40 µL after anesthesia induced by ketamine/xylazine. The mice were studied 24 h after LPS or saline instillation.
BALF was collected from anesthetized mice by lavaging lungs two times with 0.8 mL Hanks’ balanced salt solution without calcium and magnesium (HBSS) (Sigma-Aldrich, St. Louis, MI, USA). Supernatants were collected as BALF for further analyses.
The number of cells in the BALF was estimated using an automated cell counter, the Countess II FL cell counter (Thermo Fisher Scientific Inc., Waltham, MA, USA).
Albumin levels were measured by the Mouse Albumin Elisa Assay kit (Cat # E99-134), which was obtained from Bethyl Laboratories. BALF samples from the LPS group were diluted at a 1:2000 ratio.
Total protein in BALF samples was measured using the Pierce BCA protein assay kit (Cat # 23225) as detailed in the product manual (Thermo Fisher Scientific).
The right middle lobe was immediately placed in an RNA later solution and stored at −80 °C until the RNA extraction procedure. RNA extraction was performed using RNeasy Mini Kits from Qiagen (Valencia, CA, USA). One microgram of total RNA was reverse transcribed to cDNA using an iScript cDNA synthesis kit (Bio-Rad, Hercules, CA, USA). Expression of the target genes was quantified using gene-specific primers and PowerSYBRGreen master mix (Thermo Fisher Scientific) in a QuantStudio 3 Real-Time PCR instrument (Thermo Fisher Scientific). Predesigned mouse IL-6 (QT00098875), TNF-α (QT00104006), IL-1β (QT01048355), CXCL1 (QT00115647), CCL2 (QT00167832), CXCL3 (QT00151599) and CXCL9 (QT00097062) primers were purchased from Qiagen (Valencia, CA, USA). Fold changes in gene expression relative to the housekeeping gene TATA-Box Binding Protein (Tbp, QT00198443) were determined. Gene expression values were calculated based on the […] method.

[3] = target: T1, human recombinant sEH (Homo sapiens, UniProt P34913); experiment: Fluorescence-based sEH activity assay (PHOME substrate), human enzyme; type: biochemical
T1 construct: purchased Cayman Chemical 10011671
T1 sequence (P34913 1-555): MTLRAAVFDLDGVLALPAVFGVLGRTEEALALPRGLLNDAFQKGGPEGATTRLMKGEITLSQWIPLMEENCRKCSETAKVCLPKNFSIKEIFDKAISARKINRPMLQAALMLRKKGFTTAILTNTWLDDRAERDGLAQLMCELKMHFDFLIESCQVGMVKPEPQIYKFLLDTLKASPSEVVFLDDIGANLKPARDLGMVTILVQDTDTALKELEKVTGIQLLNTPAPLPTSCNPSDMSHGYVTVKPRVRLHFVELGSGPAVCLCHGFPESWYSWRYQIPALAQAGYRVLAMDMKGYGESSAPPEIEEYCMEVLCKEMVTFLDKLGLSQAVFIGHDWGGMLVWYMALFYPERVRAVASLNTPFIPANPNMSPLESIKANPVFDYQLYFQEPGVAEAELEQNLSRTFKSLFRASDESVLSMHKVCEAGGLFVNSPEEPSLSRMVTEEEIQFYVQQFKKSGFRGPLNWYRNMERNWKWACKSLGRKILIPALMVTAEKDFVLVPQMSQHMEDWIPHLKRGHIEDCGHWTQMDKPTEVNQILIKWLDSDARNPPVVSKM
Procedure: A fluorescence-based sEH activity assay provided a convenient method for screening human epoxide hydrolase inhibitors. The assay utilized (3-Phenyl-oxiranyl)-acetic acid cyano-(6-methoxy-naphthalen-2-yl)-methyl ester (PHOME) as a substrate. […] The inhibitory function of the compounds on sEH activity was tested as detailed in the product manual from Cayman Chemical. Briefly, 3 mL sEH assay buffer (10×) was diluted with 27 mL HPLC-grade water. This final assay buffer, 25 mM bis-tris (pH 7.0), was used in the assay and for the dilution of the soluble epoxide hydrolase (sEH) enzyme. Amounts of 12 μL each of human and mouse recombinant sEH were thawed on ice. Prior to assaying, 588 μL cold assay buffer was added directly to the enzyme vial. An amount of 190 μL assay buffer and 5 μL solvent (40% DMSO in assay buffer) were added to the background wells. In the 100% initial activity wells, 185 μL assay buffer, 5 μL sEH, and 5 μL solvent were added. In inhibitor wells, 185 μL assay buffer, 5 μL solution of the synthesized compounds, and 5 μL of recombinant enzyme solution were added.
(§1) Average fluorescence (AF) of the background wells and 100% initial activity in the wells and of each of the inhibitors were determined. The background AF was subtracted from the 100% initial activity and inhibitor AFs. The % sEH activity is calculated as (inhbitited AF/% 100 initial activity) × 100.
(§2) Multiple concentrations of the inhibitors were tested followed by plotting of the percent activity as a function of inhibitor concentration to determine the IC50 values.

[4] = target: T2, mouse recombinant sEH (Mus musculus, UniProt P34914); experiment: Fluorescence-based sEH activity assay (PHOME substrate), mouse enzyme; type: biochemical; details: dose-dependent assay; read-out: Mouse sEH Inhibition IC50
T2 sequence (P34914 1-554): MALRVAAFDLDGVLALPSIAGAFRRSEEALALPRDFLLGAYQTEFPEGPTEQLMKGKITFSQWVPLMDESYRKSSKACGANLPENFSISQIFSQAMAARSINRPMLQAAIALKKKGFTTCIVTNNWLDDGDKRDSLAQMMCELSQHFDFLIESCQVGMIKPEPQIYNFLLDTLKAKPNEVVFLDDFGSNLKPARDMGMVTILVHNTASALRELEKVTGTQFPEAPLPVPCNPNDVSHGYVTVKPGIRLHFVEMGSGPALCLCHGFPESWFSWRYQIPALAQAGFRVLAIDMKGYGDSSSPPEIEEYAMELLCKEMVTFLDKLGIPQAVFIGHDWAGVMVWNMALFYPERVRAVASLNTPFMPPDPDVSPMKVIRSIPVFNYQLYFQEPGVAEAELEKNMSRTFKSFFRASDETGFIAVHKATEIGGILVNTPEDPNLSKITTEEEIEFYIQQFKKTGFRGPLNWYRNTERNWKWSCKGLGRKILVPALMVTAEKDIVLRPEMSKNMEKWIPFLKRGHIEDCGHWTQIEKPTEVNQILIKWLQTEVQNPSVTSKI
Procedure: A fluorescence-based sEH activity assay provided a convenient method for screening human epoxide hydrolase inhibitors. The assay utilized (3-Phenyl-oxiranyl)-acetic acid cyano-(6-methoxy-naphthalen-2-yl)-methyl ester (PHOME) as a substrate. […] The inhibitory function of the compounds on sEH activity was tested as detailed in the product manual from Cayman Chemical. Briefly, 3 mL sEH assay buffer (10×) was diluted with 27 mL HPLC-grade water. This final assay buffer, 25 mM bis-tris (pH 7.0), was used in the assay and for the dilution of the soluble epoxide hydrolase (sEH) enzyme. Amounts of 12 μL each of human and mouse recombinant sEH were thawed on ice. Prior to assaying, 588 μL cold assay buffer was added directly to the enzyme vial. An amount of 190 μL assay buffer and 5 μL solvent (40% DMSO in assay buffer) were added to the background wells. In the 100% initial activity wells, 185 μL assay buffer, 5 μL sEH, and 5 μL solvent were added. In inhibitor wells, 185 μL assay buffer, 5 μL solution of the synthesized compounds, and 5 μL of recombinant enzyme solution were added. To start the reaction, 5 μL of PHOME was added to each well at a final concentration of 0.25 mM. The microwell plate was shaken carefully for 10 s and covered with a plate cover.
as §1, §2

[5] = In vivo pharmacokinetic experiment; design: species or system C57BL/6J mice; details: male, C57BL/6J, mouse, serum, other: oral and intraperitoneal; mice, oral and intraperitoneal administration, 10 mg/kg; read-out: plasma half-life
Procedure: Twenty 8–9-week-old male C57BL/6J mice were taken for the in vivo pharmacokinetic experiment. They were divided into four groups, each containing five mice. Each group was used for either oral or intraperitoneal administration of compound 4f or 15a. Both the compounds were reconstituted in 5% DMSO, 5% TWEEN 80 in saline water (pH = 7.4). The mice were orally and intraperitoneally administered compounds at 10 mg/kg dose. Blood samples were collected at 0, 0.5, 1, 2, 4, 6, and 24 h after administration of the compound, and serum was isolated with the compound. For the pharmacokinetic study, 10 μL of serum samples from mice were extracted with a 2:1 mixture of LC/MS-grade chloroform and methanol, followed by intermittent vortexing, and then centrifuged at 4000 rpm for 10 min at 4 °C. Thereafter, the supernatant was collected and analyzed by LC−MS/MS to measure the concentrations of compounds 4f and 15a in the serum.

SMILES	analgesic effect in hot plate assay [1]	effect on LPS-induced increase in total protein in BALF [2]	number of cells in bronchoalveolar lavage (BAL) [2]	LPS-induced lung gene expression of interleukin 1B (IL-1B) ([2]; qPCR)	LPS-induced lung gene expression of interleukin 6 (IL-6) ([2]; qPCR)	lung gene expression of CXCL1 ([2]; qPCR)	Human sEH % Inhibition [3] [%]	IC50 ([3]; dose-dependent assay, read-out: Human sEH Inhibition IC50) [µM]	IC50 [4] [µM]	half-life [5] [h]
O=C(O)CCCCCCCCCCCNC(=O)NC12CC3CC(CC(C3)C1)C2 [AUDA, 12-(3-adamantan-1-ylureido)dodecanoic acid, reference compound]	none of the sEH inhibitors, including AUDA, showed any analgesic effect	neither AUDA nor novel sEH inhibitors’ (4f and 4l) effect	similarly attenuated the number of cells in BAL	attenuated	attenuated	similarly attenuated	–	–	–	–
CC12CC3CC(C)(C1)CC(NC(=O)NS(=O)(=O)c1ccc(OC(F)(F)F)cc1)(C3)C2 [Compound 15a, N-((3,5-dimethyladamantan-1-yl)carbamoyl)-4-(trifluoromethoxy)benzenesulfonamide]	–	–	–	–	–	–	92.06	0.00387	0.022	< 2
